Laboratory results: patent US20110172163A1, “Novel Protease Inhibitors” (QUEENSLAND UNIVERSITY OF TECHNOLOGY, priority 2008, published 2011)
“Also recorded” adds a separate entry of the source. Read-outs that look alike come from different tables or passages of the source. Bridge positions count the residues as written; N and C are the ends. Peptide text beside a SMILES is read from it.

Experiments:
iKLK14 = target: T1, iKLK14 (Homo sapiens, UniProt Q9P0G3); assay: Inhibitor kinetics: KLK14 amidolytic activity; assay type: biochemical
T1 construct: made in house
T1 sequence (Q9P0G3 41-267): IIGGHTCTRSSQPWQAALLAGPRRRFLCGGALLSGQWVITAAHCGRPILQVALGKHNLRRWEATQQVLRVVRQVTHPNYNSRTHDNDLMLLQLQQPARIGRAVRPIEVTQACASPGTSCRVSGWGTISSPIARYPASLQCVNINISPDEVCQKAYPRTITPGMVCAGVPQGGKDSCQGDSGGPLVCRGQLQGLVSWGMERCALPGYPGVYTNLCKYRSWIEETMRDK

bovine β-trypsin = target: T2, bovine β-trypsin (Bos taurus, UniProt P00760); assay: Inhibitor kinetics: trypsin amidolytic activity; assay type: biochemical; conditions: trypsin; read-out: IC50
T2 construct: bovine β-trypsin (20 ng); purchased Sigma Chemicals
T2 sequence (P00760 24-246): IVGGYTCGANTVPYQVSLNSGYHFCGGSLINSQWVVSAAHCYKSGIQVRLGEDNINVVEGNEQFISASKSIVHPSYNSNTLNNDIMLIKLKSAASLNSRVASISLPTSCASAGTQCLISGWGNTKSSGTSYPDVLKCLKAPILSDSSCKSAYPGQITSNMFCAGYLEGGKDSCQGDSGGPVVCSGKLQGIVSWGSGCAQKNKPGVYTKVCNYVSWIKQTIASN
Method: All enzymes and substrates were obtained from Sigma Chemicals if not otherwise specified. […] The release of pNa moiety was monitored as described above for 7 minutes with each point being the average of three independent triplicate reactions. IC50 was determined using the Prism 5 software suite (GraphPad software Inc.).

KLK5 = KLK5 (Homo sapiens, UniProt Q9Y337); assay: Protein proteolysis: fibrinogen digestion by KLK5; assay type: biochemical; conditions: up to a concentration of 2 μM
KLK5, sequence (Q9Y337 23-293): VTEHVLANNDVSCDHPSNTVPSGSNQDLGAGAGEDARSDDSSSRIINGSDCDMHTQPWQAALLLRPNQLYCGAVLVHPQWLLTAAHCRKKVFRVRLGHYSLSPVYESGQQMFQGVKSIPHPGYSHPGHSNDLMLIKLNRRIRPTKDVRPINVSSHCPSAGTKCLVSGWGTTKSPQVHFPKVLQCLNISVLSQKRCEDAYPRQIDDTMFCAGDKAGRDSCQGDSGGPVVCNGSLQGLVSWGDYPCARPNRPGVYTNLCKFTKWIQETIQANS

KLK12 = KLK12 (Homo sapiens, UniProt Q9UKR0); assay: Protein proteolysis: fibrinogen digestion by KLK12; assay type: biochemical; conditions: up to a concentration of 2 μM
KLK12, sequence (Q9UKR0 18-248): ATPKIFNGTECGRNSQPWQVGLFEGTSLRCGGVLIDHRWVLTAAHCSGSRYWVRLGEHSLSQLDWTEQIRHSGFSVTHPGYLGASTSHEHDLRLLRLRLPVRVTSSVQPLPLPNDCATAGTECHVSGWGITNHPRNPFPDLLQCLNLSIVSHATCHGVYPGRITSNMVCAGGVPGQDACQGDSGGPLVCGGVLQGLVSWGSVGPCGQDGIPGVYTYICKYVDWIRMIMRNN

KLK14 = KLK14 (Homo sapiens, UniProt Q9P0G3); assay: Protein proteolysis: fibrinogen digestion by KLK14; assay type: biochemical; conditions: up to a concentration of 2 μM
KLK14, sequence (Q9P0G3 35-267 limits assumed): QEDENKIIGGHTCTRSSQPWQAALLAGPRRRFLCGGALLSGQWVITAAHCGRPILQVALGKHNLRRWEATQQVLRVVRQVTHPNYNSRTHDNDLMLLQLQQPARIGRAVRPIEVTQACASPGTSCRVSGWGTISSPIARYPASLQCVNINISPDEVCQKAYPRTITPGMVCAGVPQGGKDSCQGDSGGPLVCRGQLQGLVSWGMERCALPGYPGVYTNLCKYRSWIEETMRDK

[1] = Stability of SFTI variants in contact with prostate cancer cells in vitro; assay type: in vitro ADME; conditions: for half-life at 1 μM: RPMI 1640 with 10% fetal calf serum, read-out: t1/2 of residual inhibitory activity (converted)
Method: Cell monolayers of LNCaP, 22Rv1 and PC3 cells were established in RPMI 1640 medium containing 10% fetal calf serum. Each cell line was treated +/−1 μM SFTI-FCQR contained in 4.0 mL RPMI media (as above) with a vehicle control to account for inhibition by intrinsic media factors. 25 μL samples of media were taken at 0, 24, 48, 72, 96 and 120 hrs timepoints. Media samples were boiled at 97° C. for 15 min, centrifuged at 14,000 rpm for 5 min to remove cellular debris and precipitated protein. Residual SFTI-FCQR inhibitory activity in the medium was determined against recombinant KLK4 using FVQR-pNA as a peptide substrate as above using 15ng KLK4 and 30 nmol FVQR-pNA with 2.5 μL and […] of media+/−SFTI-FCQR added from each treatment.

iKLK4 = assay: KLK4 stimulated calcium release in LMF stably expressing human PAR-2; assay type: cell-based
Method: (§1) Lung murine fibroblasts (LMF) from Par-1 null mice stably expressing human PAR-2 were grown to 80% confluence as previously described, washed with PBS, detached nonenzymatically, resuspended (4×10^6 cells/ml) in extracellular medium (121 mM NaCl, 5.4 mM KCl, 0.8 mM MgCl2, 1.8 mM CaCl2, 5.5 mM glucose, 25 mM HEPES (pH 7.4)) containing 0.2% (w/v) bovine serum albumin (Sigma) and then loaded with the fluorescence indicator Fura-2 acetoxymethyl ester (1.0 μM; Invitrogen) at room temperature for 60 min. Cells were then pelleted followed by resuspension in extracellular medium (without bovine serum albumin) at a concentration of 2×10^6 cells/ml for fluorescence measurements. The ratio of fluorescence at 510 nm after excitation at 340 and 380 nm was monitored (Polarstar Optima fluorescent plate reader) during treatment with bovine β trypsin (Sigma Chemicals), PAR-2 activating peptide SLIGKV (AusPep) and iKLK4 with or without SFTI-FCQR.

bovine β trypsin = assay: Trypsin stimulated calcium release in LMF stably expressing human PAR-2; assay type: cell-based; conditions: 1 μM SFTI-FCQR, trypsin 10 nM
Method: as §1

[2] = system: LNCaP prostate cancer cells; assay: Primary tumour growth of LNCaP cells in nude mice (luciferase imaging); assay type: in vivo; conditions: 3×i.v. doses of 0.2 mg/kg, when tumour specific growth rate was less than 2%/day
Method: Nude mice were injected with 1.5×10^6 LNCaP prostate cancer cells stably expressing an exogenous luciferase reporter gene and imaged over a period of 56 days. Tumour growth was measured by injecting mice with […] (a luminescent substrate for luciferase) and the resulting light emissions were quantified using a xenogen in vivo imaging system.

KLK4 = KLK4 (Homo sapiens, UniProt Q9Y5K2); assay: Protein proteolysis: fibrinogen digestion by KLK4 (SDS-PAGE); assay type: biochemical; set-up: pro-region of PSA (KLK3), replacing the native KLK4 pro-region (only if the E. coli preparation was used) (N, cleaved yes); made in house; conditions: 2.5 nM KLK4, SDS-PAGE
KLK4, sequence (Q9Y5K2 31-254): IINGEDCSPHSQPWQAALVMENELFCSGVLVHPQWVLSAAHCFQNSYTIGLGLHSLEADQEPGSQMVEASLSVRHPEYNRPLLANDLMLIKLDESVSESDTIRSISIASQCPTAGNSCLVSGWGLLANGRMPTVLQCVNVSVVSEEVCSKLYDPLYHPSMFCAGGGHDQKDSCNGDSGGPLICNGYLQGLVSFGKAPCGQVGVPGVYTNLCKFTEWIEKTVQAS
Method: Fibrinogen was solubilised in assay buffer to a final concentration of 1 mg/ml and digested with KLK4 (+/−inhibitor) over a period of 90 minutes at 37° C. Typically assays consisted of 5 μM protein substrate and 2.5 nM KLK4 protein or 1 nM trypsin made up to a final volume of 8 μl with assay buffer. Proteolysis was initiated by addition of KLK4 and terminated by addition of SDS PAGE sample buffer and heat denaturation at 100° C. for 5 minutes. Hydrolysis products were resolved on 10% SDS PAGE gels and compared with incubations terminated immediately after initiation (time 0), and substrate proteins incubated in assay buffer for 90 minutes in the absence of KLK4 or 4-16 mins with trypsin.

Compound: CC[C@H](C)[C@@H]1NC(=O)[C@@H]2CCCN2C(=O)[C@@H]2CCCN2C(=O)[C@H]([C@@H](C)CC)NC(=O)[C@H](CO)NC(=O)[C@H](CCCNC(=N)N)NC(=O)[C@H](CCC(N)=O)NC(=O)[C@@H]2CSSC[C@H](NC1=O)C(=O)N[C@@H](Cc1ccccc1)C(=O)N1CCC[C@H]1C(=O)N[C@@H](CC(=O)O)C(=O)NCC(=O)N[C@@H](Cc1ccccc1)C(=O)N2 [SFTI-FCQR] (cyclo(GFCQRSIPPICFPD); disulfide 3-11)
- IC50 (iKLK14): 1510 ± 37.1 nM
- IC50 (bovine β-trypsin): 4060 ± 1090 nM
- inhibition of KLK5 digestion of fibrinogen (KLK5): no inhibition
- inhibition of KLK12 digestion of fibrinogen (KLK12): no inhibition
- inhibition of KLK14 digestion of fibrinogen (KLK14): no inhibition
- residual inhibition of recombinant KLK4 by tissue culture supernatant ([1]; 1:5 dilution of supernatant, after a week of contact with prostate cancer cells): complete inhibition
- half-life at 1 μM ([1]; 22Rv1 cell monolayers, 1 μM incubated with 22RV1 cells): 117 h
- half-life at 1 μM ([1]; LNCaP cell monolayers, 1 μM incubated with LNCaP cells): 119 h
- half-life at 1 μM ([1]; PC3 cell monolayers, 1 μM incubated with PC3 cells): 89 h
- effect on KLK4 stimulated calcium release (iKLK4; 1 μM SFTI-FCQR, iKLK4 300 nM): extremely robust blockade of calcium release
- inhibition of KLK4 stimulated calcium flux (iKLK4; at a concentration of 1 mM (as printed in discussion)): complete inhibition
- effect on trypsin stimulated calcium release (bovine β trypsin): permissive for calcium release; also recorded: no effect; also recorded: increased intracellular Ca^2+ ion concentration
- tumour growth rate in comparison to control [2]: arrested tumour growth rate
- concentration giving complete inhibition of fibrinogen proteolysis by KLK4 (KLK4): 250 nM
